According to US10800753B2, “Tetrahydrothiophene-based GABA aminotransferase inactivators and analogs thereof for treating neurological disorders” (Northwestern University, priority 2015, dated 2020):
Values belong to the compound of their own block, whether it stands above or below them.

Experiments:
[1] = test system: aspartate aminotransferase; conditions: off-target enzyme, prior art; cited from earlier work
[2] = test system: GABA-AT; conditions: cited from earlier work
[3] = target: CYP2C8 (Homo sapiens (Human), UniProt P10632); assay: Inhibition of microsomal cytochromes P450: CYP2C8; format: in vitro ADME; conditions: HLM, paclitaxel substrate, 10 μM, 10 min at 37° C.
Procedure: (§1) Inhibition of Microsomal Cytochromes P450. The experiments were performed by Eurofins Panlabs (Redmond, Wash. 98052, USA). CYP1A inhibition (HLM, phenacetin substrate), CYP2B6 inhibition (HLM, bupropion substrate), CYP2C8 inhibition (HLM, paclitaxel substrate), CYP2C9 inhibition (HLM, diclofenac substrate), CYP2C19 inhibition (HLM, omeprazole substrate), CYP2D6 inhibition (HLM, dextromethorphan substrate), and CYP3A inhibition (HLM, midazolam and testosterone substrates) were tested. The test concentration was 10 μM. The incubation time was 10 min at 37° C. The detection method was by HPLC-MS/MS. The experiments were duplicated, and the % inhibition of the control values was averaged (FIG. 10).

[4] = target: hERG channel (Homo sapiens (Human), UniProt Q12809); assay: Inhibition of the hERG channel, automated whole-cell patch clamp; format: cell-based; conditions: hERG CHO-K1 cell line; 0.1 μM, 1 μM, 10 μM; 5 min at room temperature
Procedure: Inhibition of the hERG Channel. The experiments were performed by Eurofins Panlabs (Redmond, Wash. 98052, USA). hERG CHO-K1 cell line was used. The test concentrations were 0.1 μM, 1 μM, and 10 μM. The incubation time was 5 min at room temperature, cumulatively. The detection method used an automated whole-cell patch clamp. The experiments were duplicated, and the % inhibition of the tail current was averaged (FIG. 9).

[5] = target: CYP2B6 (Homo sapiens (Human), UniProt P20813); assay: Inhibition of microsomal cytochromes P450: CYP2B6; format: in vitro ADME; conditions: HLM, bupropion substrate, 10 μM, 10 min at 37° C.
Procedure: as §1

[6] = target: CYP2C9 (Homo sapiens (Human), UniProt P11712); assay: Inhibition of microsomal cytochromes P450: CYP2C9; format: in vitro ADME; conditions: HLM, diclofenac substrate, 10 μM, 10 min at 37° C.
Procedure: as §1

[7] = test system: CYP1A; assay: Inhibition of microsomal cytochromes P450: CYP1A; format: in vitro ADME, human; conditions: HLM, phenacetin substrate, 10 μM, 10 min at 37° C.
Procedure: as §1

[8] = Metabolic stability in human liver microsomes; format: in vitro ADME; conditions: over 60 minutes, 0.1 μM, 37° C., LC-MS/MS
Procedure: Measurement of the metabolic stability in HLM was accomplished by incubating 17 with the microsomes and monitoring its disappearance with time using LC-MS/MS. Imipramine, propranolol, terfenadine, and verapamil were run in similar condition as controls. […] Metabolic Stability in Human Liver Microsomes. The experiments were performed by Eurofins Panlabs (Redmond, Wash. 98052, USA). The test concentration of 17 was 0.1 μM. […] The detection method was by LC-MS/MS. Imipramine, propranolol, terfenadine, and verapamil were run in similar condition as controls.

[9] = target: CYP2C19 (Homo sapiens (Human), UniProt P33261); assay: Inhibition of microsomal cytochromes P450: CYP2C19; format: in vitro ADME; conditions: HLM, omeprazole substrate, 10 μM, 10 min at 37° C.
Procedure: as §1

[10] = target: CYP2D6 (Homo sapiens (Human), UniProt P10635); assay: Inhibition of microsomal cytochromes P450: CYP2D6; format: in vitro ADME; conditions: HLM, dextromethorphan substrate, 10 μM, 10 min at 37° C.
Procedure: as §1

[11] = test system: CYP3A; assay: Inhibition of microsomal cytochromes P450: CYP3A; format: in vitro ADME, human; conditions: HLM, midazolam and testosterone substrates, 10 μM, 10 min at 37° C.
Procedure: as §1

[12] = test system: multiple-hit rat model of infantile spasms; conditions: cited from earlier work
[13] = target: GABA aminotransferase (GABA-AT) (Sus scrofa (Pig), UniProt P80147); assay: Inhibition of GABA-AT, coupled assay with SSDH (IC50 to Ki by Cheng-Prusoff); format: biochemical; conditions: competitive inhibitor of GABA-AT
Procedure: GABA-AT was isolated and purified from pig brain by a published procedure.
Inhibition constants were determined by monitoring GABA-AT activity in the presence of 0-50 mM concentrations of synthesized analogues using a coupled assay with the enzyme succinic semialdehyde dehydrogenase (SSDH). The assay solution consisted of 10 mM GABA, 5 mM α ketoglutarate, 1 mM NADP^+, 5 mM β-mercaptoethanol, and excess SSDH in 50 mM potassium pyrophosphate buffer, pH 8.5. Enzyme activity was determined by observing the change in absorbance at 340 nm at 25° C. IC50 values were obtained using non-linear regression in GraphPad Prism5 software. […] (Yung-Chi, C.; Prusoff, W. H. Biochem. Pharmacol. 1973, 22, 3099-3108.)

Chain of CYP2C8 (P10632 whole entry): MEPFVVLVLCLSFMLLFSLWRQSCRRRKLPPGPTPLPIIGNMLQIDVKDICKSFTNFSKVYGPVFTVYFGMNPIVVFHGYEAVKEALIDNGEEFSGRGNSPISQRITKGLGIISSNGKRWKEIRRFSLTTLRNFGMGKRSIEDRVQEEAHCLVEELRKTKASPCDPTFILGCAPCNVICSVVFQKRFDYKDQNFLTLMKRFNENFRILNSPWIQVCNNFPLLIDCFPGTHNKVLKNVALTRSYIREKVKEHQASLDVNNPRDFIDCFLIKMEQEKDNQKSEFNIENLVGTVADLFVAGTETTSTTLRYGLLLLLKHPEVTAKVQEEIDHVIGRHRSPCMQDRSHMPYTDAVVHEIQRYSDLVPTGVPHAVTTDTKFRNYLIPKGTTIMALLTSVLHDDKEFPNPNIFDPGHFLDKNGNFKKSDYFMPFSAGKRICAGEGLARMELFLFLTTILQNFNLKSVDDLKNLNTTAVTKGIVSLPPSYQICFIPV
Chain of GABA aminotransferase (GABA-AT) (P80147 29-500): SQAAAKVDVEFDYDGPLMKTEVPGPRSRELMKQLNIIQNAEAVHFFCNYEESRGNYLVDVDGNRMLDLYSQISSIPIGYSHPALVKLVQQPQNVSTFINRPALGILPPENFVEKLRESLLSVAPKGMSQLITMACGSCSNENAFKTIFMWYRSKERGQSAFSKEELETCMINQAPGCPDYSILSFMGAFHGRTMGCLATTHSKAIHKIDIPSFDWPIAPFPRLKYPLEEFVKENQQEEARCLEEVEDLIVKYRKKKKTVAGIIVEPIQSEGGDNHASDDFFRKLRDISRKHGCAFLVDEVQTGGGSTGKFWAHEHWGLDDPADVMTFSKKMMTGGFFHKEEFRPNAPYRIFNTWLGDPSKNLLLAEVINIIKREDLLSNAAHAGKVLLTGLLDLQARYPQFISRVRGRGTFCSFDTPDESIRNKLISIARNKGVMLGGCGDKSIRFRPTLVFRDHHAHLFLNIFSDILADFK
Chain of CYP2B6 (P20813 whole entry): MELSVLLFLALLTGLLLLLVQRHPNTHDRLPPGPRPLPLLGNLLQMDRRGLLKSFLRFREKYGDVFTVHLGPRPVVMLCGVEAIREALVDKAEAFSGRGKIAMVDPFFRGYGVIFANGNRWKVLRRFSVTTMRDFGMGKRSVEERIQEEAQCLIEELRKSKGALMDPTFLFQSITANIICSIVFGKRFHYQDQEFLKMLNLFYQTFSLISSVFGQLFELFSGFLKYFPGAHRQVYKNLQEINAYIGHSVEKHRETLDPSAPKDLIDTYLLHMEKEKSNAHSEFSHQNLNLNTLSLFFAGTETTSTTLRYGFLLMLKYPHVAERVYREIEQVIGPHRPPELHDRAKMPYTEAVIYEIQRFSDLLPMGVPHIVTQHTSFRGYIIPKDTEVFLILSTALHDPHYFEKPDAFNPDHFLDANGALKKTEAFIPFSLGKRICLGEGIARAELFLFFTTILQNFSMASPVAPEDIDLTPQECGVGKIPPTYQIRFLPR
Chain of CYP2C9 (P11712 whole entry): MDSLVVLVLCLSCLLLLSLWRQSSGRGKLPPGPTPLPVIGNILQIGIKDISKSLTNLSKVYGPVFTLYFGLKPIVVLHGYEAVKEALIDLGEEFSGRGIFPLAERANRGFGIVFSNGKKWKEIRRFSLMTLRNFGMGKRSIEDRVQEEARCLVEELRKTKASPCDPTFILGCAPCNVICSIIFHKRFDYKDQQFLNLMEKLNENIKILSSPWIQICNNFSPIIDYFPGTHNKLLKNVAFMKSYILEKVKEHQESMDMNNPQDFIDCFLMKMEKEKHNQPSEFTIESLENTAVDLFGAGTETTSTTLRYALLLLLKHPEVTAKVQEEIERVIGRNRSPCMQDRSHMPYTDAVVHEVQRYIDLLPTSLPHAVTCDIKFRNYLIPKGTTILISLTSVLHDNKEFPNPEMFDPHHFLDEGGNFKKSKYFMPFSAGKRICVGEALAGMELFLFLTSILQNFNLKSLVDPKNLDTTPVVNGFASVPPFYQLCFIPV
Chain of CYP2C19 (P33261 whole entry): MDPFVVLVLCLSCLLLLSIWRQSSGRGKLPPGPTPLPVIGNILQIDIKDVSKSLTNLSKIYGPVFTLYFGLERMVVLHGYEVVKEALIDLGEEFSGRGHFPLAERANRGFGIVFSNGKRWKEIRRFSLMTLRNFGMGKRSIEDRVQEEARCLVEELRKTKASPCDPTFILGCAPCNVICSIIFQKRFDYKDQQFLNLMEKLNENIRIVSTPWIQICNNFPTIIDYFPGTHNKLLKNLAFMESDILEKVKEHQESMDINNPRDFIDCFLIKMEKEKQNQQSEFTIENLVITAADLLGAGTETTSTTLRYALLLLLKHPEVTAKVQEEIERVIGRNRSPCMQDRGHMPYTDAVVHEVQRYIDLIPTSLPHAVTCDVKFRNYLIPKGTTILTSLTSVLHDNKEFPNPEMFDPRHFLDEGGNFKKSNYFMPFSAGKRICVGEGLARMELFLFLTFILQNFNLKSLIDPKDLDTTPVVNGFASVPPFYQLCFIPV
Chain of hERG channel (Q12809 whole entry): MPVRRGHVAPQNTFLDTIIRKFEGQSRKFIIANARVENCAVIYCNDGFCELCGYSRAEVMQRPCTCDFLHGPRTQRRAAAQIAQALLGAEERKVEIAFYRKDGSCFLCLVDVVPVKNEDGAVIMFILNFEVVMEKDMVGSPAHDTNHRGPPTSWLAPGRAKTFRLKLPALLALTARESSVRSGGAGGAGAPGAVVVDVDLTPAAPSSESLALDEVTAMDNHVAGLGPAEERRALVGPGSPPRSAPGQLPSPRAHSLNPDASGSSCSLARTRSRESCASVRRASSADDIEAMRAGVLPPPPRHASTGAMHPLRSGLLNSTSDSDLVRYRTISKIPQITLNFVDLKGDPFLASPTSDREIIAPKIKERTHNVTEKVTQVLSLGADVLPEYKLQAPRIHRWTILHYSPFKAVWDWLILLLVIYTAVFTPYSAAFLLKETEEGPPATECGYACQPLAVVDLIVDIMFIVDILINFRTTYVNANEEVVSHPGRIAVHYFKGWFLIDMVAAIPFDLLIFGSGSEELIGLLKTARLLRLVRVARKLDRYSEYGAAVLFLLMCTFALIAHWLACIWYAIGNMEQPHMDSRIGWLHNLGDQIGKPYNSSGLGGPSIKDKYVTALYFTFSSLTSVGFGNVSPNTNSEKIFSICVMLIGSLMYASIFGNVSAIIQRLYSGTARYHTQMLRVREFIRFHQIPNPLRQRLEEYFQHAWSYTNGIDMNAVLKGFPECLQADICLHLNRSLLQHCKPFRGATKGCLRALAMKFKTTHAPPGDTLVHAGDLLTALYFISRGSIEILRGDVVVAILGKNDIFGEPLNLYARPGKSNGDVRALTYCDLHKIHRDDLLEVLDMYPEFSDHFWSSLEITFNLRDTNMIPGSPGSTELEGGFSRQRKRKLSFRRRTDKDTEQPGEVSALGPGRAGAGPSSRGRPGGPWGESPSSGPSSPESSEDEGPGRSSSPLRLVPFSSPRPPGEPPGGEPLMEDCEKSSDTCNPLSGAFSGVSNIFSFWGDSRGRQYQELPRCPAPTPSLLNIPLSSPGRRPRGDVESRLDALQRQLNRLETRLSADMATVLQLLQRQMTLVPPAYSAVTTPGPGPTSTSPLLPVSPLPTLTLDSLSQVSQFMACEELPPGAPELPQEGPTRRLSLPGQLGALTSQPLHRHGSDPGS
Chain of CYP2D6 (P10635 whole entry): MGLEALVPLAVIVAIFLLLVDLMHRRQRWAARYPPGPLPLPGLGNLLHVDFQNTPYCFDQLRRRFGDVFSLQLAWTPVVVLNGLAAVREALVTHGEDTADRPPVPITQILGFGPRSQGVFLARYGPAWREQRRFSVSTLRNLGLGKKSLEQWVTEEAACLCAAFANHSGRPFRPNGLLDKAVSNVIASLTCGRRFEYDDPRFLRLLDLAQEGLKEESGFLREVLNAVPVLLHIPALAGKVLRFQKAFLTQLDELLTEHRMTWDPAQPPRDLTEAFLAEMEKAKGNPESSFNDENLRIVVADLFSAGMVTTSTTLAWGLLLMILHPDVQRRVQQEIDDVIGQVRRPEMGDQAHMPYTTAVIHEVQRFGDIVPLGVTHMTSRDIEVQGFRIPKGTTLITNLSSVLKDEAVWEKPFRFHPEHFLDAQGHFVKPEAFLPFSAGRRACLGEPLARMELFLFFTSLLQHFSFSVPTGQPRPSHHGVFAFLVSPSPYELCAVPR

Compound: N[C@H]1C=C(C(=O)O)SC1 [(S)-4-Amino-4,5-dihydro-2-thiophenecarboxylic acid]
inactivation or inhibition of aspartate aminotransferase [1]: inactivator of aspartate aminotransferase | inactivation of GABA-AT (in words, prior art) [2]: known inactivator of GABA-AT

CYP2C8 inhibition [3]: did not inhibit or induce | CYP2B6 inhibition [5]: did not inhibit or induce | CYP2C9 inhibition [6]: did not inhibit or induce | CYP1A inhibition [7]: did not inhibit or induce | metabolized in HLM [8]: less than 20% | CYP2C19 inhibition [9]: did not inhibit or induce | CYP2D6 inhibition [10]: did not inhibit or induce | CYP3A inhibition [11]: did not inhibit or induce
Compound: Cl.N[C@@H]1CS[C@H](C(=O)O)C1 [Compound 17, (2S,4S)-4-Aminotetrahydrothiophene-2-carboxylic acid hydrochloride]
inhibition of the hERG channel (tail current) [4]: did not inhibit

Compound: C=CC(N)CCC(=O)O (stereo not shown) [vigabatrin]
time spasms suppression stayed effective [12]: 1 days

Ki [13]: 430 µM
Compound: (2S,4S)-4-aminotetrahydrofuran-2-carboxylic acid (40) and (2R,4R)-4-aminotetrahydrofuran-2-carboxylic acid (51) [mixture of enantiomers 40 and 51]
